Source: ChEMBL document CHEMBL3526033, “Identification of human liver cytochrome P450 enzymes involved in the metabolism of SCH 530348 (Vorapaxar), a potent oral thrombin protease-activated receptor 1 antagonist” (Drug Metab Dispos, 2011)
Values belong to the compound of their own block, whether it stands above or below them.

Assays:
Cytochrome P450 3A5 [1] = target: T1, Cytochrome P450 3A5 (Homo sapiens, UniProt P20815); assay: Activity of human recombinant CYP3A5 assessed as enzyme-mediated (3R,3aS,4S,4aR,7R,8aR,9aR)-7-amino-4-((E)-2-(5-(3-fluorophenyl)pyridin-2-yl)vinyl)-3-methyldecahydronaphtho[2,3-c]furan-1(3H)-one formation at 25 uM after 120 mins by LC-MS/MS analysis in presence of NADPH; assay type: ADME; conditions: 2 h
Cytochrome P450 1A1 [2] = target: T2, Cytochrome P450 1A1 (Homo sapiens, UniProt P04798); assay: Activity of human recombinant CYP1A1 assessed as enzyme-mediated (3R,3aS,4S,4aR,7R,8aR,9aR)-7-amino-4-((E)-2-(5-(3-fluorophenyl)pyridin-2-yl)vinyl)-3-methyldecahydronaphtho[2,3-c]furan-1(3H)-one formation at 25 uM after 120 mins by LC-MS/MS analysis in presence of NADPH; assay type: ADME; conditions: 2 h
T2 sequence (P04798 whole entry): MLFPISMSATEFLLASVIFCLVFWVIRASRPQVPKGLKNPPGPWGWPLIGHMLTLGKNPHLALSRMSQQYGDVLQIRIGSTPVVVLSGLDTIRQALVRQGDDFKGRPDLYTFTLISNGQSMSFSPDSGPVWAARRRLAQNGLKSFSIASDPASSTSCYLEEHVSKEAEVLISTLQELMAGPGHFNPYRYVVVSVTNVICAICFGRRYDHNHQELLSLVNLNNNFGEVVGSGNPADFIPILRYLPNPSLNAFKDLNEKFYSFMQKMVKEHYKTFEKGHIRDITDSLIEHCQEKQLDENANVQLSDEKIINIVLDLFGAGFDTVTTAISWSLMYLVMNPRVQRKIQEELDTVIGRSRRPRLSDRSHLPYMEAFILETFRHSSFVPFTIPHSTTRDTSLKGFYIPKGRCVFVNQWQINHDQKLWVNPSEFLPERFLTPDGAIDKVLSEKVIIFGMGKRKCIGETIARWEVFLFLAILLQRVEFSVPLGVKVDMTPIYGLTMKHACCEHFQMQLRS

Liver microsome [3] = assay: Drug metabolism in human liver microsomes assessed as (3R,3aS,4S,4aR,7R,8aR,9aR)-7-amino-4-((E)-2-(5-(3-fluorophenyl)pyridin-2-yl)vinyl)-3-methyldecahydronaphtho[2,3-c]furan-1(3H)-one formation at 10 uM after 120 mins by LC-MS/MS analysis; assay type: ADME; conditions: 2 h
Cytochrome P450 1A1 [4] = target: T2, Cytochrome P450 1A1; assay: Activity of human recombinant CYP1A1 assessed as enzyme-mediated drug metabolism at 10 uM after 120 mins by LC-MS/MS analysis; assay type: ADME; conditions: 2 h
Cytochrome P450 2C19 = Cytochrome P450 2C19 (Homo sapiens, UniProt P33261); assay: Activity of human recombinant CYP2C19 assessed as enzyme-mediated (3R,3aS,4S,4aR,7R,8aR,9aR)-7-amino-4-((E)-2-(5-(3-fluorophenyl)pyridin-2-yl)vinyl)-3-methyldecahydronaphtho[2,3-c]furan-1(3H)-one formation at 25 uM after 120 mins by LC-MS/MS analysis in presence of NADPH; assay type: ADME; conditions: 2 h
Cytochrome P450 2B6 = target: T3, Cytochrome P450 2B6 (Homo sapiens, UniProt P20813); assay: Activity of human recombinant CYP2B6 assessed as enzyme-mediated 2-hydroxyethyl (1R,3aR,4aR,6R,8aR,9S,9aS)-9-((E)-2-(5-(3-fluorophenyl)pyridin-2-yl)vinyl)-1-methyl-3-oxododecahydronaphtho[2,3-c]furan-6-ylcarbamate formation at 25 uM after 120 mins by LC-MS/MS analysis in presence of NADPH; assay type: ADME; conditions: 2 h
T3 sequence (P20813 whole entry): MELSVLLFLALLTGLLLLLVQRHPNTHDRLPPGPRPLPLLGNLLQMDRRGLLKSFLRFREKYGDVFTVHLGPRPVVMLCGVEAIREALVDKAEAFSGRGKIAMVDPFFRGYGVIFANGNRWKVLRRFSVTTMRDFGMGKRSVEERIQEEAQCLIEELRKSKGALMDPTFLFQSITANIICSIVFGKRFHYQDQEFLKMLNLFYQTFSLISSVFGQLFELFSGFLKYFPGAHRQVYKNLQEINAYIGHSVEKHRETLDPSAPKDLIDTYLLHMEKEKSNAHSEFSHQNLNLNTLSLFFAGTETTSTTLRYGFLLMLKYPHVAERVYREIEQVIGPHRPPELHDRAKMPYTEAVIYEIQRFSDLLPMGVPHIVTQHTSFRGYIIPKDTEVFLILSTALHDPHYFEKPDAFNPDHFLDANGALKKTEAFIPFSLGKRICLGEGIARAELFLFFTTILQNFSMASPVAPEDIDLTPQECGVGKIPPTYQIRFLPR

[5] = Drug metabolism in human liver S9 fraction assessed as (3R,3aS,4S,4aR,7R,8aR,9aR)-7-amino-4-((E)-2-(5-(3-fluorophenyl)pyridin-2-yl)vinyl)-3-methyldecahydronaphtho[2,3-c]furan-1(3H)-one formation at 10 uM after 120 mins by LC-MS/MS analysis; assay type: ADME, subcellular; conditions: s9, 2 h
[6] = Drug level in human intestine microsomes treated with 25 uM vorapaxar after 120 mins by LC-MS/MS analysis in presence of NADPH; assay type: ADME; conditions: 2 h
Cytochrome P450 3A5 [7] = target: T1, Cytochrome P450 3A5; assay: Activity of human recombinant CYP3A5 assessed as enzyme-mediated drug metabolism treated with 25 uM vorapaxar after 120 mins by LC-MS/MS analysis in presence of NADPH; assay type: ADME; conditions: 2 h
Cytochrome P450 1A2 = target: T4, Cytochrome P450 1A2 (Homo sapiens, UniProt P05177); assay: Activity of human recombinant CYP1A2 assessed as enzyme-mediated drug metabolism treated with 25 uM vorapaxar after 120 mins by LC-MS/MS analysis in presence of NADPH; assay type: ADME; conditions: 2 h
T4 sequence (P05177 whole entry): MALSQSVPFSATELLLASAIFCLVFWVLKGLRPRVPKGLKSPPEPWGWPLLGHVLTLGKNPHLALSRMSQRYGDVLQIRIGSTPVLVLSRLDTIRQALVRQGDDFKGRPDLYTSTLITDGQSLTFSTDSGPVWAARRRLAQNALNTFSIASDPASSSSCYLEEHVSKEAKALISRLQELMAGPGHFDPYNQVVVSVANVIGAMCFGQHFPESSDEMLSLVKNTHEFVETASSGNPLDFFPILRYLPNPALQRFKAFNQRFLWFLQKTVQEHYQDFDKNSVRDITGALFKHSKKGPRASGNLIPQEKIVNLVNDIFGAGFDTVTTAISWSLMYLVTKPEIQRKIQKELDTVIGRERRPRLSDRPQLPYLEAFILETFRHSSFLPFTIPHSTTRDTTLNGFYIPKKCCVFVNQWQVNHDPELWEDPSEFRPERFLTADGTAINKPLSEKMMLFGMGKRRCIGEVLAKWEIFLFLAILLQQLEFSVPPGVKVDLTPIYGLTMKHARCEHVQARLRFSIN

Liver microsome [8] = assay: Drug metabolism in human liver microsomes overexpressing CYP3A4 assessed as (3R,3aS,4S,4aR,7R,8aR,9aR)-7-amino-4-((E)-2-(5-(3-fluorophenyl)pyridin-2-yl)vinyl)-3-methyldecahydronaphtho[2,3-c]furan-1(3H)-one formation at 25 uM after 120 mins by LC-MS/MS analysis in presence of ticlopidine; assay type: ADME; conditions: 2 h
[9] = Drug metabolism in human intestine microsomes assessed as ((4aR,6R)-9-{2-[(1R,4S)-5-((S)-3-Fluoro-phenyl)-pyridin-2-yl]-vinyl}-1-methyl-3-oxo-dodecahydro-naphtho[2,3-c]furan-6-yl)-carbamic acid(R)-2-hydroxy-ethyl ester formation by LC-MS/MS analysis in presence of 100 uM astemizole; assay type: ADME

T1 sequence (P20815 whole entry): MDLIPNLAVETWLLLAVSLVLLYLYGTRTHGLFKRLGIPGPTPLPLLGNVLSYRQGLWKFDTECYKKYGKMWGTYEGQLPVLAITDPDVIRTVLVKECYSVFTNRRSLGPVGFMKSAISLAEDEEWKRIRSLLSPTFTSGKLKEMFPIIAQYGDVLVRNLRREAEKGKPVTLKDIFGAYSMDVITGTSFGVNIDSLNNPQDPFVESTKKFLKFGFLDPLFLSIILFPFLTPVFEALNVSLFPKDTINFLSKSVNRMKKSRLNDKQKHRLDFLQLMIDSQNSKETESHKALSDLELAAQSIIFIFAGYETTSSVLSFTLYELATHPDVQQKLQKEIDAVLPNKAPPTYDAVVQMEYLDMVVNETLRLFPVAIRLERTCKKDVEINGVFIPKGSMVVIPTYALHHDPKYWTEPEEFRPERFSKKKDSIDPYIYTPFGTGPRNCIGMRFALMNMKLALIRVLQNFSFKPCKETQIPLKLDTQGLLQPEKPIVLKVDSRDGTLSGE
Chain of Cytochrome P450 2C19 (P33261 whole entry): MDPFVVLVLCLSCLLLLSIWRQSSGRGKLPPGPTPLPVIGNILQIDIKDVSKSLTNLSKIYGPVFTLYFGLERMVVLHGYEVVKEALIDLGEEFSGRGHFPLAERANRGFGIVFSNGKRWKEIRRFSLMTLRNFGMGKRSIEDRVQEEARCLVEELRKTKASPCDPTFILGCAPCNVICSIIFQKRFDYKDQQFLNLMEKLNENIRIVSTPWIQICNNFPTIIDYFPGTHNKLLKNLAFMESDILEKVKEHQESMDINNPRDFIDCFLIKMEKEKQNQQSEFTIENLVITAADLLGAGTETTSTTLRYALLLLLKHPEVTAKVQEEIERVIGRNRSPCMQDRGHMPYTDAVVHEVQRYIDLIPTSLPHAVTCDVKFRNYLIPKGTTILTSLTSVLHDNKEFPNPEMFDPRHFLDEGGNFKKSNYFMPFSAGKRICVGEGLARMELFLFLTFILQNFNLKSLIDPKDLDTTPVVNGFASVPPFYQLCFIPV

Drug metabolism (Cytochrome P450 3A5 [1]): metabolite_detected | Drug metabolism (Cytochrome P450 1A1 [2]): metabolite_detected | Drug metabolism (Liver microsome [3]): metabolite_not_detected | Drug metabolism (Cytochrome P450 1A1 [4]): metabolite_not_detected | Drug metabolism (Cytochrome P450 2C19): metabolite_detected | Drug metabolism (Cytochrome P450 2B6): metabolite_detected | Drug metabolism [5]: metabolite_not_detected
SMILES: CCOC(=O)N[C@@H]1CC[C@@H]2[C@@H](C1)C[C@H]1C(=O)O[C@H](C)[C@H]1[C@H]2/C=[14CH]/c1ccc(-c2cccc(F)c2)cn1

Drug metabolism [6]: metabolite_detected | Drug metabolism (Cytochrome P450 3A5 [7]): metabolite_detected | Drug metabolism (Cytochrome P450 1A2): metabolite_detected
SMILES: C[C@H]1OC(=O)[C@@H]2C[C@@H]3C[C@H](NC(=O)OCCO)CC[C@H]3[C@H](/C=C/c3ccc(-c4cccc(F)c4)cn3)[C@H]12

Drug metabolism (Liver microsome [8]): metabolite_not_detected | inhibition (INH) [9]: 77%
SMILES: CCOC(=O)N[C@@H]1CC[C@@H]2[C@@H](C1)C[C@H]1C(=O)O[C@H](C)[C@H]1[C@H]2/C=C/c1ccc(-c2cccc(F)c2)cn1 [VORAPAXAR]
